# Paper PMC10566733 (PLOS ONE, 2023)
# Several values for one entry are separate records, joined by “and”; a condition that tells them apart may be missing. Equal values may be shown once. Read-outs that look alike come from different tables or passages of the source. Residues, ends and D or L forms follow the SMILES beside them. *: point of attachment. FITC = O=C1OC2(c3ccc(O)cc3Oc3cc(O)ccc32)c2ccc(NC(=S)*)cc21
# Legend:
# [1] = system: monolayer of bEnd.3 mouse brain endothelial cells; test: Permeability across a monolayer of brain endothelial cells (in vitro BBB model); format: in vitro ADME; set-up: Diffusion of FITC-TAT across bEnd.3 monolayer / Diffusion of FITC-linked peptide across bEnd.3 monolayer / Diffusion of FITC-TAT across bEnd.3 monolayer, FITC-TAT + TAT / Diffusion of FITC-TAT across bEnd.3 monolayer, FITC-TAT + TATK/R>A: unit not given here; settings: for Rate of diffusion across the monolayer compared with FITC-TAT: bEnd.3 monolayer; for Diffusion of FITC-linked peptide across bEnd.3 monolayer: fluorescence spectrophotometry
# [2] = system: bEnd.3 mouse brain endothelial cells
# Description: The bEnd.3 (mouse brain endothelial cell) cell line, purchased from Bioresource Collection and Research Center (BCRC, Taiwan), was used in this study. Prior to experiments, the cells were cultured in Dulbecco’s modified Eagle’s medium (DMEM; HyClone, cat. #SH30003.02) with 10% fetal bovine serum (Gibco, cat. #10437028) and 1% penicillin-streptomycin (Gibco, cat. #15140112), and were passaged every 2–3 days with 0.25% trypsin-EDTA (Gibco, cat. #25200056).
# Cellular metabolic activity was measured by MTT (thiazolyl blue tetrazolium bromide) assay 24 h after treatment by normothermia (37°C), hypothermia (4°C), sodium azide (NaN3)/2-deoxy-D-glucose (2-DG), cytochalasin D, 5-(N-ethyl-N-isopropyl)-amiloride (EIPA), or methyl-beta-cyclodextrin (MβCD). In brief, MTT assay was performed with 2000 cells in culture by first replacing the cell culture medium with medium containing 0.5 mg/ml MTT (Alfa Aesar, cat. #L11939). After a 4-h incubation period to allow for MTT metabolism, the MTT-containing medium was replaced with 100 μl of dimethyl sulfoxide (DMSO; JT Baker), and the culture plate was placed on a shaker for 10 min to allow for dissolution of the violet crystal metabolites. Thereafter, the optical density of the metabolite was measured at 570 nm by an ELISA reader. The optical density of the metabolite in the hypothermia and drug treatment groups was expressed as percentage relative to the optical density of the metabolite in the normothermia and control groups, respectively.
# [3] = peptide 1 μM (Fig 3A), diffusion time 0.1 h, individual cultures n = 4
# [4] = peptide 1 μM (Fig 3A), diffusion time 4 h, individual cultures n = 4
# [5] = peptide 1 μM (Fig 3A), diffusion time 12 h, individual cultures n = 4
# [6] = peptide 1 μM (Fig 3A), diffusion time 24 h, individual cultures n = 4
# [7] = peptide 3 μM (Fig 3B), diffusion time 0.1 h, individual cultures n = 4
# [8] = peptide 3 μM (Fig 3B), diffusion time 4 h, individual cultures n = 4
# [9] = peptide 3 μM (Fig 3B), diffusion time 12 h, individual cultures n = 4
# [10] = peptide 3 μM (Fig 3B), diffusion time 24 h, individual cultures n = 4
# [11] = peptide 10 μM (Fig 3C), diffusion time 0.1 h, individual cultures n = 4
# [12] = peptide 10 μM (Fig 3C), diffusion time 4 h, individual cultures n = 4
# [13] = peptide 10 μM (Fig 3C), diffusion time 12 h, individual cultures n = 4
# [14] = peptide 10 μM (Fig 3C), diffusion time 24 h, individual cultures n = 4
Molecule,"Rate of diffusion across the monolayer compared with FITC-TAT ([1]; 1 μM concentration, Fig 3A)","Rate of diffusion across the monolayer compared with FITC-TAT ([1]; 3 μM concentration, Fig 3B)","Rate of diffusion across the monolayer compared with FITC-TAT ([1]; 10 μM concentration, Fig 3C)","Diffusion of FITC-linked peptide across bEnd.3 monolayer [1, 3]","Diffusion of FITC-linked peptide across bEnd.3 monolayer [1, 4]","Diffusion of FITC-linked peptide across bEnd.3 monolayer [1, 5]","Diffusion of FITC-linked peptide across bEnd.3 monolayer [1, 6]","Diffusion of FITC-linked peptide across bEnd.3 monolayer [1, 7]","Diffusion of FITC-linked peptide across bEnd.3 monolayer [1, 8]","Diffusion of FITC-linked peptide across bEnd.3 monolayer [1, 9]","Diffusion of FITC-linked peptide across bEnd.3 monolayer [1, 10]","Diffusion of FITC-linked peptide across bEnd.3 monolayer [1, 11]","Diffusion of FITC-linked peptide across bEnd.3 monolayer [1, 12]","Diffusion of FITC-linked peptide across bEnd.3 monolayer [1, 13]","Diffusion of FITC-linked peptide across bEnd.3 monolayer [1, 14]","Effect on cellular metabolic activity, MTT [2]",other results
C[C@H](NC(=O)[C@H](C)NC(=O)[C@H](C)NC(=O)[C@H](CCC(N)=O)NC(=O)[C@H](C)NC(=O)[C@H](C)NC(=O)[C@H](C)NC(=O)[C@H](C)NC(=O)[C@H](C)NC(=O)CNC(=O)[C@H](Cc1ccc(O)cc1)NC(=S)Nc1ccc2c(c1)C(=O)OC21c2ccc(O)cc2Oc2cc(O)ccc21)C(=O)O [FITC-TATK/R>A] ({FITC}-YGAAAAAQAAA-OH),much lower rate than FITC-TAT,much lower rate than FITC-TAT,much lower rate than FITC-TAT,16.9505 and 16.508 and 16.5507 and 15.9581,28.9506 and 32.0869 and 31.9736 and 31.2514,42.2787 and 47.1236 and 45.2026 and 46.9823,65.8175 and 68.5893 and 66.6226 and 69.1937,6.156 and 4.865 and 2.668 and 3.238,19.8822 and 11.958 and 7.983 and 9.049,39.1651 and 26.1724 and 19.7108 and 16.4957,49.6596 and 34.462 and 23.6779 and 22.9503,1.811 and 1.623 and 2.572 and 1.851,18.7947 and 19.4252 and 20.5729 and 16.0903,38.7338 and 38.9661 and 39.2385 and 32.797,65.0223 and 61.702 and 66.1075 and 57.2466,,"Diffusion of FITC-linked peptide across bEnd.3 monolayer ([1]; peptide 10 μM alone (Fig 3D), diffusion time 0.1 h, individual cultures n = 3): 2.221 and 2.035 and 1.973; Diffusion of FITC-linked peptide across bEnd.3 monolayer ([1]; peptide 10 μM alone (Fig 3D), diffusion time 12 h, individual cultures n = 3): 29.1435 and 26.4948 and 29.3071; Diffusion of FITC-linked peptide across bEnd.3 monolayer ([1]; peptide 10 μM alone (Fig 3D), diffusion time 24 h, individual cultures n = 3): 54.4105 and 51.9054 and 56.2316"
"CCN(c1nc(N)c(C(=O)N=C(N)N)nc1Cl)C(C)C [EIPA, 5-(N-ethyl-N-isopropyl)-amiloride]",,,,,,,,,,,,,,,,markedly decreased cellular metabolic activity,
N=C(N)NCCC[C@H](NC(=O)[C@H](CCCNC(=N)N)NC(=O)[C@H](CCCCN)NC(=O)[C@H](Cc1ccc(O)cc1)NC(=O)[C@H](CCCNC(=N)N)NC(=O)[C@H](CCCNC(=N)N)NC(=O)[C@H](CCCNC(=N)N)NC(=O)[C@H](CCCNC(=N)N)NC(=O)[C@H](CCCCN)NC(=S)Nc1ccc2c(c1)C(=O)OC21c2ccc(O)cc2Oc2cc(O)ccc21)C(=O)N[C@@H](CCC(N)=O)C(=O)NCC(=O)O [FITC-TATscrambled] ({FITC}-KRRRRYKRRQG-OH),marginally higher rate than FITC-TAT,rate equal to that of FITC-TAT,marginally lower than FITC-TAT,16.6121 and 16.5353 and 16.6054 and 15.9771,37.5047 and 37.4667 and 38.2192 and 36.5367,71.5027 and 70.7894 and 73.1753 and 67.019,112.675 and 114.406 and 111.607 and 110.916,5.913 and 5.203,27.0594 (2×) and 32.066 and 20.6139,76.2224 (2×) and 56.9939 and 73.6994,111.452 (2×) and 91.4132 and 89.6289,1.995 and 1.727 and 1.576 and 1.501,22.9531 and 16.5248 and 15.9626 and 15.9604,52.8508 and 41.023 and 42.3549 and 44.9043,105.008 and 91.7182 and 94.732 and 94.0226,,
C=C1[C@@H](C)[C@H]2[C@H](Cc3ccccc3)NC(=O)[C@]23[C@H](OC(C)=O)/C=C/[C@@](C)(O)C(=O)[C@@H](C)C/C=C/[C@H]3[C@@H]1O [cytochalasin D],,,,,,,,,,,,,,,,,"Effect on cellular metabolic activity, MTT ([2]; bEnd.3, pre-treatment for 30 min followed by washout, Fig 4A): had no effect on cellular metabolic activity; Effect on cellular metabolic activity, MTT ([2]; bEnd.3, sustained treatment for 24 h, Fig 4A): increased cellular metabolic activity in a concentration-dependent manner"
methyl-beta-cyclodextrin [MβCD],,,,,,,,,,,,,,,,markedly decreased cellular metabolic activity,
